# Test results reported in article PMC5760531, “Action Potential Recording and Pro-arrhythmia Risk Analysis in Human Ventricular Trabeculae” (Frontiers in Physiology, 2018).
# Experiments:
# [1] = human free (unbound) effective therapeutic plasma concentration used to calculate multiples; cited from earlier work
# hERG = details: ref Rampe et al., 1998; Qu and Vargas, 2015; cited from earlier work
# [2] = test system: human ventricular trabeculae; assay: Action potential recording and pro-arrhythmic score analysis in human ventricular trabeculae (hVT);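 further: sharp microelectrode action potential recordings at 37°C in Tyrode-perfused trabeculae, 4 cumulative concentrations each applied 31 min, values averaged over last 30 APs, vehicle 0.1% DMSO as control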
# Experimental: Briefly, the human heart was transferred into a dissection vessel containing a cold (4°C), fresh proprietary dissection solution. The heart was maintained completely submerged in dissection solution. Ventricular trabeculae were dissected and transferred to the recording chamber.
# Briefly, a single tissue was mounted into the experimental chamber filled with oxygenated Tyrode's external solution. The temperature of the solution was maintained at 37°C with flow rate at 5 mL per minute. The tissue was allowed to equilibrate for 30–60 min with stimulation (3 V, 3 ms) at a frequency of 1.0 Hz. High impedance borosilicate microelectrodes were prepared with a tip resistance of 10–20 MΩ once filled with 3 M KCl. Upon tissue impalement, the membrane potential was allowed to stabilize (typically, around −85 mV). Tissues with resting membrane potentials more positive than −75 mV were rejected. Bipolar stimulation at 1.5x threshold was applied and recordings were performed in continuous mode with sampling at 20 kHz using ADInstruments and LabChart Software.
# Interruption of perfusion/oxygenation; (2). Absence of Aps following stimulation at baseline; (3). Time frame of drug exposure not respected; (4). Unstable response to stimulation at baseline; (5). Resting membrane potential (RMP) > −75 mV; 7). Maximal amplitude of AP (AMAX) <70 mV; 8). AP duration at 90% repolarization (APD90) <200 ms or >450 ms.
# Experimental Procedure: Each test article was evaluated at 4 concentrations in 4 ventricular trabeculae derived from a minimum of 2 donor hearts. Testing concentrations were chosen based upon human free ETPC, aiming to cover 1–100-fold of human free ETPC. […] Briefly, following stabilization of each tissue, APs were collected and assessed for 31 min in vehicle control solution (Tyrode with 0.1% DMSO) at stimulation frequencies of 1 Hz for 25 min, 2 Hz for 3 min and then 1 Hz for 3 min. Following this vehicle control period, 4 concentrations of a test compound were applied sequentially and cumulatively. Each concentration was applied for 31 min with the same stimulation sequence as in vehicle controls.
# For each frequency tested, the last 30 APs acquired at the end of the period were averaged for vehicle controls and for each test article concentration. Analysis at 1 Hz included only the last 30 APs of the initial 25-min incubation period. The following AP parameters and pro-arrhythmia variables were analyzed offline upon the completion of recordings:
# • RMP (mV) • AMAX (mV) • AP duration at percent repolarization (APD20, APD30, APD50, APD60, APD90) (ms) • Short term variability analysis of AP duration (STV): Beat-to-beat variability of repolarization was quantified as STV from APD90 Poincare plots over a period of 30 sec.
# Compound effects were quantified relative to the data collected during the vehicle control period (see Figure 1). […] Additionally, based on AnaBios historical data, threshold values for changes over baseline control for AP instability, APD alternans, Maximum APD dispersion and ERP (APD) were based upon an effect level of 10%. When applicable, differences were tested for statistical significance using the unpaired Student's t-test. A value of P < 0.05 was considered significant.
# AP parameters and pro-arrhythmia variables were combined into a meaningful, single score to assess the pro-arrhythmic risk of a compound at each concentration tested. The pro-arrhythmic potential of compounds at 1 or 2 Hz was determined by assigning a weighted scale to each variable (Table 1).
# [3] = 1Hz, 1.5-FOLD free ETPC (0.002µM)
# [4] = 1Hz, 15-FOLD free ETPC (0.002µM)
# [5] = 1Hz, 150-FOLD free ETPC (0.002µM)
# [6] = 1Hz, 1500-FOLD free ETPC (0.002µM)
# [7] = 2Hz, 1.5-FOLD free ETPC (0.002µM)
# [8] = 2Hz, 15-FOLD free ETPC (0.002µM)
structure (smiles),measurement,setting,value
"O=C1NCCN1CCN1CCC(c2cn(-c3ccc(F)cc3)c3ccc(Cl)cc23)CC1 [SERTINDOLE, Sertindole]",Free ETPC,[1],0.002 µM
same,hERG IC50,hERG,sub-micromolar
same,AMAX percentage change compared to vehicle control,[2]; [3],5%
same,APD30 percentage change compared to vehicle control,[2]; [3],6%
same,APD50 percentage change compared to vehicle control,[2]; [3],6%
same,APD90 percentage change compared to vehicle control,[2]; [3],5%
same,Alternans percentage change compared to vehicle control,[2]; [3],54%
same,Beat Escape percentage change compared to vehicle control,[2]; [3],0%
same,EADs percentage change compared to vehicle control,[2]; [3],0%
same,ERP percentage change compared to vehicle control,[2]; [3],1%
same,Max Dispersion percentage change compared to vehicle control,[2]; [3],-15%
same,RMP percentage change compared to vehicle control,[2]; [3],1%
same,Refractoriness Escape percentage change compared to vehicle control,[2]; [3],0%
same,STV percentage change compared to vehicle control,[2]; [3],31%
same,Triangulation percentage change compared to vehicle control,[2]; [3],4%
same,AMAX percentage change compared to vehicle control,[2]; [4],5%
same,APD30 percentage change compared to vehicle control,[2]; [4],-1%
same,APD50 percentage change compared to vehicle control,[2]; [4],0%
same,APD90 percentage change compared to vehicle control,[2]; [4],0%
same,Alternans percentage change compared to vehicle control,[2]; [4],-5%
same,Beat Escape percentage change compared to vehicle control,[2]; [4],0%
same,EADs percentage change compared to vehicle control,[2]; [4],0%
same,ERP percentage change compared to vehicle control,[2]; [4],3%
same,Max Dispersion percentage change compared to vehicle control,[2]; [4],-35%
same,RMP percentage change compared to vehicle control,[2]; [4],3%
same,Refractoriness Escape percentage change compared to vehicle control,[2]; [4],0%
same,STV percentage change compared to vehicle control,[2]; [4],0%
same,Triangulation percentage change compared to vehicle control,[2]; [4],3%
same,AMAX percentage change compared to vehicle control,[2]; [5],5%
same,APD30 percentage change compared to vehicle control,[2]; [5],4%
same,APD50 percentage change compared to vehicle control,[2]; [5],6%
same,APD90 percentage change compared to vehicle control,[2]; [5],7%
same,Alternans percentage change compared to vehicle control,[2]; [5],31%
same,Beat Escape percentage change compared to vehicle control,[2]; [5],0%
same,EADs percentage change compared to vehicle control,[2]; [5],0%
same,ERP percentage change compared to vehicle control,[2]; [5],7%
same,Max Dispersion percentage change compared to vehicle control,[2]; [5],-3%
same,RMP percentage change compared to vehicle control,[2]; [5],2%
same,Refractoriness Escape percentage change compared to vehicle control,[2]; [5],0%
same,STV percentage change compared to vehicle control,[2]; [5],23%
same,Triangulation percentage change compared to vehicle control,[2]; [5],12%
same,AMAX percentage change compared to vehicle control,[2]; [6],4%
same,APD30 percentage change compared to vehicle control,[2]; [6],1%
same,APD50 percentage change compared to vehicle control,[2]; [6],6%
same,APD90 percentage change compared to vehicle control,[2]; [6],8%
same,Alternans percentage change compared to vehicle control,[2]; [6],-12%
same,Beat Escape percentage change compared to vehicle control,[2]; [6],0%
same,EADs percentage change compared to vehicle control,[2]; [6],0%
same,ERP percentage change compared to vehicle control,[2]; [6],13%
same,Max Dispersion percentage change compared to vehicle control,[2]; [6],-30%
same,RMP percentage change compared to vehicle control,[2]; [6],3%
same,Refractoriness Escape percentage change compared to vehicle control,[2]; [6],0%
same,STV percentage change compared to vehicle control,[2]; [6],-24%
same,Triangulation percentage change compared to vehicle control,[2]; [6],19%
same,AMAX,[2]; [7],109
same,AMAX percentage change compared to vehicle control,[2]; [7],3%
same,APD30,[2]; [7],104
same,APD30 percentage change compared to vehicle control,[2]; [7],-1%
same,APD50,[2]; [7],139
same,APD50 percentage change compared to vehicle control,[2]; [7],0%
same,APD90,[2]; [7],197
same,APD90 percentage change compared to vehicle control,[2]; [7],0%
same,Alternans,[2]; [7],1.61
same,Alternans percentage change compared to vehicle control,[2]; [7],93%
same,Beat Escape,[2]; [7],0
same,Beat Escape percentage change compared to vehicle control,[2]; [7],0%
same,EADs,[2]; [7],0
same,EADs percentage change compared to vehicle control,[2]; [7],0%
same,ERP,[2]; [7],0.43
same,ERP percentage change compared to vehicle control,[2]; [7],2%
same,Max Dispersion,[2]; [7],4.87
same,Max Dispersion percentage change compared to vehicle control,[2]; [7],7%
same,RMP,[2]; [7],-85
same,RMP percentage change compared to vehicle control,[2]; [7],1%
same,Refractoriness Escape,[2]; [7],0
same,Refractoriness Escape percentage change compared to vehicle control,[2]; [7],0%
same,STV,[2]; [7],1.20
same,Triangulation,[2]; [7],93
same,Triangulation percentage change compared to vehicle control,[2]; [7],1%
same,AMAX,[2]; [8],110
same,AMAX percentage change compared to vehicle control,[2]; [8],4%
same,APD30,[2]; [8],104
same,APD30 percentage change compared to vehicle control,[2]; [8],-1%
